Columns and labels:
rat C6 glioma cells = test: GDNF production promoting action in rat C6 glioma cells (ELISA of culture supernatant); assay type: cell-based; details: concentration which causes 50% increase of GDNF relative to the control group, cultured 2 days with test compound, GDNF in culture supernatant by ELISA
Experimental: Using rat C6 glioma cells, the GDNF production promoting action of the compound of the present invention was evaluated.
Rat C6 glioma cells (ATCC) were grown in Dulbecco's Modified Eagle's Medium (DMEM) containing 10% FBS (Fetal Bovine Serum) in a collagen type 1 coated 75 cm^2 culture flask (SUMITOMO BAKELITE Co., Ltd.) until near confluent, detached by trypsin treatment and washed once with DMEM containing 10% FBS.
The cells after washing were diluted with 10% FBS-containing DMEM to a concentration of 5×10^4/mL and seeded at 0.3 mL/well in each well of collagen type 1 coated 48 well culture dish (SUMITOMO BAKELITE Co., Ltd.). After 3 days, the culture in the culture dish was placed in a 1% BSA (bovine serum albumin, Sigma)-containing DMEM medium supplemented with various concentrations of test compound, and further cultured for 2 days. The culture supernatant was recovered and preserved at −80° C. until measurement of GDNF.
The content of GDNF in the culture supernatant was measured by the following ELISA Method.
Anti-GDNF antibody (MAB212, R&D) was diluted with TBS (Tris buffered physiological saline: 25 mmol/L Tris-HCl (pH 8.0), 150 mmol/L NaCl) to 2 μg/mL and dispensed at 0.1 mL/well to each well of a 96-well immunoplate. The 96-well immunoplate was incubated overnight at 4° C. and washed once with TBS containing Tween 20 at 0.05% (hereinafter to be abbreviated as TBST). A blocking solution (TBS containing 1% BSA and 5% sucrose) was added at 0.2 mL/well to each well after washing, and the plate was incubated at room temperature for 1 hr., after which each well was washed twice with TBST. The culture supernatant (0.1 mL) of the aforementioned C6 cells was added to each well after washing and the plate was incubated at room temperature for 3 hrs., after which the wells were washed 5 times with TBST. The 500-fold diluted anti-GDNF antibody (G2791, Promega) was added by 0.1 mL to each well after washing, incubated at room temperature for 2 hrs. and washed 5 times with TBST. A 5000-fold diluted horseradish peroxidase-labeled anti-chicken IgY antibody (G1351, Promega) was added at 0.1 mL/well to each well after washing, incubated at room temperature for 2 hrs. and washed 5 times with TBST. A substrate solution (TMB substrate solution, BIO-RAD) was added at 0.1 mL/well to each well after washing and allowed to develop color at room temperature for 8 min. To stop the reaction, 0.1 mL of 1 mol/L phosphoric acid was added to each well in coloring developing reaction. The absorbance of the reaction solution at 450 nm wavelength was measured.
In the same manner as above except the test compound was not used, the ELISA Method was performed and this was used as a control group.
Using various concentrations of GDNF (Promega), ELISA Method was performed in the same manner as above and standard line was prepared.
From the aforementioned absorbance and standard line, GDNF content in a sample was calculated and the concentration (EC50), which causes 50% increase of GDNF relative to the control group was calculated from the regression line.

[1] = Rattus norvegicus, C6 glioma, 48 h

## CC(=O)Cc1ccc(NC(=O)/C=C/c2cnn(C)c2-c2ccc(F)cc2)cc1 [Example 121, (2E)-3-[5-(4-Fluorophenyl)-1-methyl-1H-pyrazol-4-yl]-N-[4-(2-oxopropyl)phenyl]acrylamide]
Rat C6 glioma cells; [1]
  EC50: 180 nM
other
  melting point: 186 to 187 °C

## CCOP(=O)(Cc1ccc(NC(=O)/C=C/c2cnn(C)c2-c2ccc(OC)cc2)cc1)OCC [Example 5, (2E)-N-[4-(Diethylphosphonomethyl)phenyl]-3-[5-(4-methoxyphenyl)-1-methyl-1H-pyrazol-4-yl]acrylamide]
Rat C6 glioma cells; [1]
  EC50: 1000 nM
other
  melting point: 199 to 200 °C

## Cc1cccc(C(O)c2ccc(NC(=O)/C=C/c3cnn(C)c3-c3ccc(F)cc3)cc2)n1 (centres unmarked) [Example 50, (2E)-3-[5-(4-Fluorophenyl)-1-methyl-1H-pyrazol-4-yl]-N-{4-[hydroxy(6-methyl-2-pyridinyl)methyl]phenyl}acrylamide]
Rat C6 glioma cells; [1]
  EC50: 400 nM

## CCOP(=O)(Cc1ccc(NC(=O)/C=C/c2cnn(C)c2-c2ccoc2)cc1)OCC [Example 147, Diethyl 4-[{(2E)-3-[5-(3-furyl)-1-methyl-1H-pyrazol-4-yl]prop-2-enoyl)amino]benzylphosphonate]
Rat C6 glioma cells; [1]
  EC50: 460 nM
other
  melting point: 208 to 210 °C

## CCOP(=O)(Cc1ccc(NC(=O)/C=C/c2cnn(C)c2-c2ccccc2)cc1)OCC [Example 11, (2E)-N-[4-(Diethylphosphonomethyl)phenyl]-3-(1-methyl-5-phenyl-1H-pyrazol-4-yl)acrylamide]
Rat C6 glioma cells; [1]
  EC50: 900 nM
other
  melting point: 239 to 240 °C

## Cn1ncc(/C=C/C(=O)Nc2ccc(-n3ccnc3)cc2)c1-c1ccc(F)cc1 [Example 195]
Rat C6 glioma cells
  EC50: 120 nM

## CCOP(=O)(Cc1ccc(NC(=O)/C=C/c2cncn2-c2ccc(F)cc2)cc1)OCC [Example 61, (2E)-N-[4-(Diethylphosphonomethyl)phenyl]-3-[1-(4-fluorophenyl)-1H-imidazol-5-yl]acrylamide]
Rat C6 glioma cells; [1]
  EC50: 400 nM
other
  melting point: 165 to 166 °C

## CCCCC1(CC)COP(=O)(Cc2ccc(NC(=O)/C=C/c3cnn(C)c3-c3ccc(F)cc3)cc2)OC1 (centres unmarked) [Example 27, (2E)-N-{4-[(5-Butyl-5-ethyl-2-oxide-1,3,2-dioxaphosphinan-2-yl)methyl]phenyl}-3-[5-(4-fluorophenyl)-1-methyl-1H-pyrazol-4-yl]acrylamide]
Rat C6 glioma cells
  EC50: 500 nM

## COCc1ccc(NC(=O)/C=C/c2cnn(C)c2-c2ccc(F)cc2)cc1 [Example 209, (2E)-3-[5-(4-Fluorophenyl)-1-methyl-1H-pyrazol-4-yl]-N-[4-(methoxymethyl)phenyl]acrylamide]
other
  melting point: 170 to 171 °C

## CCOP(=O)(Cc1ccc(NC(=O)/C=C/c2cnn(C)c2-c2ccc(Br)cc2)cc1)OCC
other
  melting point: 229 to 231 °C

## Cn1ncc(/C=C/C(=O)Nc2ccc(CNC(=O)c3ccccc3)cc2)c1-c1ccc(F)cc1 [Example 142, N-[4-({(2E)-3-[5-(4-Fluorophenyl)-1-methyl-1H-pyrazol-4-yl]prop-2-enoyl}amino)benzyl]benzamide]
other
  melting point: 250 to 251 °C

## (2E)-3-[5-(4-Fluorophenyl)-1-methyl-1H-pyrazol-4-yl]-N-[4-(1-pyrrolidinylmethyl) phenyl]acrylamide [Example 193]
Rat C6 glioma cells
  EC50: 160 nM

## Cn1ncc(/C=C/C(=O)Nc2ccc(CCO)cc2)c1-c1ccc(F)cc1 [Example 167, (2E)-3-[5-(4-Fluorophenyl)-1-methyl-1H-pyrazol-4-yl]-N-[4-(2-hydroxyethyl)phenyl]acrylamide]
other
  melting point: 198 to 200 °C

## Cc1nnc(COc2ccc(NC(=O)/C=C/c3cnn(C)c3-c3ccc(F)cc3)cc2)o1 [Example 97, (2E)-3-[5-(4-Fluorophenyl)-1-methyl-1H-pyrazol-4-yl]-N-{4-[(5-methyl-1,3,4-oxadiazol-2-yl)methoxy]phenyl}acrylamide]
other
  melting point: 117 to 118 °C

## Cn1ncc(/C=C/C(=O)Nc2ccc3[nH]c(=O)oc3c2)c1-c1ccc(F)cc1 [Example 106, (2E)-3-[5-(4-Fluorophenyl)-1-methyl-1H-pyrazol-4-yl]-N-(2-oxo-2,3-dihydro-1,3-benzoxazol-6-yl)acrylamide]
other
  melting point: > 300 °C

Source: patent publication US7423159B2, “Agent for preventing or treating neuropathy” (Takeda Pharmaceutical Company Limited, priority 2002, dated 2008)
